Where two headings read alike, the source gives them in different places.
Legend:
c-KIT = c-KIT (Homo sapiens (Human), UniProt P10721); assay: Kinase inhibitory activity, isotopic labeling (γ-33P-ATP); format: biochemical; settings: compound at 10 μM
Procedure: (§1) The object of this assay was to test the inventive compounds for the kinase inhibitory activity in vitro. In this assay, an isotopic labeling method was used to label the γ phosphate group on ATP. EGFR (including wild type, L858R mutant type and L858R/T790M double mutant type), VEGFR2, ALK, BTK, c-KIT, c-SRC, MET, PDGFRα and FLT3 kinases were tested in vitro for the activity inhibition. Staurosporine was used as a reference molecule (or referred to as a positive control). […] The IC50 value can be obtained by the calculation of the inhibitory rates at a series of different concentrations of the tested compounds.
(§2) To a reaction tube were successively added the buffer solution (8 mM MOPS, pH 7.0, 0.2 mM EDTA, 10 mM MnCl2), the kinase to be tested (5-10 mU) (EGFR/ALK/BTK/c-KIT/c-SRC/MET/PDGFRα/VEGFR2), the substrate for the kinase to be tested (a reference material), 10 mM of the solution of magnesium acetate and γ-^33 P-ATP, and different concentrations of the tested compounds. […] The reaction was terminated with […] of the 3% phosphate buffer solution. 10 μL of the reaction liquid was titrated on the Filtermat A membrane. The membrane was washed with 75 mM of the phosphate solution thrice (5 minutes each time), and then with methanol once, and finally dried. The membrane was subjected to a scintillation counting. The value of the scintillation counting reflected the phosphorylation level of the substrate and therefore could characterize the inhibition of the kinase activity.

VEGFR2 = VEGFR2 (Homo sapiens (Human), UniProt P35968); assay: as above; format: biochemical
Procedure: as §1, §2

BTK = BTK (Homo sapiens (Human), UniProt Q06187); assay: as above; format: biochemical; settings: compound at 10 μM
Procedure: as §1, §2

c-SRC = c-SRC (Homo sapiens (Human), UniProt P12931); assay: as above; format: biochemical; settings: compound at 10 μM
Procedure: as §1, §2

ALK = ALK (Homo sapiens (Human), UniProt Q9UM73); assay: as above; format: biochemical; settings: compound at 10 μM
Procedure: as §1, §2

PDGFRα = PDGFRα (Homo sapiens (Human), UniProt P16234); assay: as above; format: biochemical; settings: compound at 10 μM
Procedure: as §1, §2

FLT3 = FLT3 (Homo sapiens (Human), UniProt P36888); assay: as above; format: biochemical; settings: compound at 10 μM
Procedure: as §1, §2

MET = MET (Homo sapiens (Human), UniProt P08581); assay: as above; format: biochemical; settings: compound at 10 μM
Procedure: as §1, §2

[1] = system: colon cancer cell strain HCT116; assay: In-vitro tumor cell proliferation inhibition, MTT; format: cell-based, human
Excerpt: (§3) The object of this assay was to test the inventive compounds for the inhibitory activity of in-vitro tumor cell proliferation. The MTT (tetreamethyl-azo-zole-salt) colorimetric method was used in this assay.
(§4) Human non-small cell lung carcinoma cell strains HCC827, PC-9, H1975 (EGFR L858R/T790M mutation) and H292 (EGFR WT), and other tumor type cell strains, including human acute myelogenous leukemia cell strain MV4-11, human chronic granulocytic leukemia cell strain K562, human squamous cell carcinoma cell strain A431, human breast carcinoma cell strains MDA-MB-468 and BT 474, human colon cancer cell strains SW480, HCT116 and SW620, human liver cancer cell strain Hep G2, human gastric cancer cell strain MK-45, and human malignant melanoma cell strain A375 used in this assay were all purchased from ATCC company, USA and kept in the laboratory. All of the above-mentioned non-small cell lung carcinoma cell strains and the breast carcinoma cell strain BT 474 were cultured with a RPMI-1640 complete culture medium containing 10% fetal bovine serum, 100 U/ml penicillin and 100 μg/ml streptomycin under 5% CO2 and at 37° C. The other cell strains were cultured with a DMEM complete culture medium containing 10% fetal bovine serum (having a MV4-11 cell content of 20%), 100 U/ml penicillin and 100 μg/ml streptomycin under 5% CO2 and 37° C.
(§5) A cell suspension having a cell concentration of 1-2×10^4 cells/ml was treated with a complete cell culture solution to adjust the cell concentration, wherein the cell concentrations for HCC827 and MV4-11 were adjusted to 6×10^4 cells/ml and 1×10^5 cells/ml respectively. The cell suspension was inoculated in a 96-well plate with 200 μl cell suspension/well and cultured overnight. Next day, the supernatant was drawn off and discarded. Then, the cells were treated with the tested compounds in a gradient concentration respectively. In the meanwhile, a negative control group free of the drug substance and an isovolumetric solvent control group (having a DMSO concentration of 1%) were used. The triplicate wells were used for each of dose groups. The culturing was conducted at 37° C. under 5% CO2. After 72 hours, […] having a concentration of 5 mg/ml was added to each of wells. The culturing was further conducted for 2-4 hours. The supernatant was discarded. Then […] was added to each of wells. The contents in the well were mixed homogenously by oscillation for 15 minutes. The absorbance (A) value was measured with a microplate reader at λ=570 nm (the A value is in the direct proportion to the number of living cells) and averaged. The relative cell proliferation inhibitory rate is (A570 control-group−A570 dose-group)/A570 control-group×100%. The assay was repeated for at least three times. The data was expressed as number average. The statistical data were analyzed using t-test. P<0.05 was considered significant. The cell proliferation inhibition of the following compounds was expressed as IC50 or inhibitory rate.

[2] = system: squamous cell carcinoma cell strain A431; assay: In-vitro tumor cell proliferation inhibition, MTT; format: cell-based, human
Excerpt: as §3, §4, §5

[3] = system: malignant melanoma cell strain A375; assay: In-vitro tumor cell proliferation inhibition, MTT; format: cell-based, human
Excerpt: as §3, §4, §5

[4] = system: chronic granulocytic leukemia cell strain K562; assay: In-vitro tumor cell proliferation inhibition, MTT; format: cell-based, human
Excerpt: as §3, §4, §5

[5] = system: breast carcinoma cell strain MDA-MB-468; assay: In-vitro tumor cell proliferation inhibition, MTT; format: cell-based, human
Excerpt: as §3, §4, §5

[6] = system: colon cancer cell strain SW480; assay: In-vitro tumor cell proliferation inhibition, MTT; format: cell-based, human
Excerpt: as §3, §4, §5

[7] = system: liver cancer cell strain Hep G2; assay: In-vitro tumor cell proliferation inhibition, MTT; format: cell-based, human
Excerpt: as §3, §4, §5

[8] = system: colon cancer cell strain SW620; assay: In-vitro tumor cell proliferation inhibition, MTT; format: cell-based, human
Excerpt: as §3, §4, §5

[9] = system: gastric cancer cell strain MK-45; assay: In-vitro tumor cell proliferation inhibition, MTT; format: cell-based, human; settings: 72 hours, read-out: MK45 (IC50)
Excerpt: as §3, §4, §5

[10] = system: breast carcinoma cell strain BT474; assay: In-vitro tumor cell proliferation inhibition, MTT; format: cell-based, human
Excerpt: as §3, §4, §5

[11] = system: acute myelogenous leukemia cell strain MV4-11; assay: In-vitro tumor cell proliferation inhibition, MTT; format: cell-based, human
Excerpt: as §3, §4, §5

[12] = system: non-small cell lung carcinoma cell strain PC-9 (EGFR delE746-A750 deletion mutation); assay: In-vitro tumor cell proliferation inhibition, MTT; format: cell-based, human; settings: 72 hours
Procedure: as §3
(§6) All of the above-mentioned non-small cell lung carcinoma cell strains and the breast carcinoma cell strain BT 474 were cultured with a RPMI-1640 complete culture medium containing 10% fetal bovine serum, 100 U/ml penicillin and 100 μg/ml streptomycin under 5% CO2 and at 37° C. The other cell strains were cultured with a DMEM complete culture medium containing 10% fetal bovine serum (having a MV4-11 cell content of 20%), 100 U/ml penicillin and 100 μg/ml streptomycin under 5% CO2 and 37° C.
as §5

[13] = system: non-small cell lung carcinoma cell strain H1975 (EGFR L858R/T790M mutation); assay: In-vitro tumor cell proliferation inhibition, MTT; format: cell-based, human; settings: 72 hours
Procedure: as §3, §6, §5

[14] = system: non-small cell lung carcinoma cell strain HCC827; assay: In-vitro tumor cell proliferation inhibition, MTT; format: cell-based, human; settings: 72 hours
Procedure: as §3, §6, §5

[15] = system: non-small cell lung carcinoma cell strain H292 (EGFR WT); assay: In-vitro tumor cell proliferation inhibition, MTT; format: cell-based, human; settings: 72 hours
Procedure: as §3, §6, §5

[16] = 72 hours, read-out: HEPG2 (IC50)

BTK, sequence (Q06187 whole entry): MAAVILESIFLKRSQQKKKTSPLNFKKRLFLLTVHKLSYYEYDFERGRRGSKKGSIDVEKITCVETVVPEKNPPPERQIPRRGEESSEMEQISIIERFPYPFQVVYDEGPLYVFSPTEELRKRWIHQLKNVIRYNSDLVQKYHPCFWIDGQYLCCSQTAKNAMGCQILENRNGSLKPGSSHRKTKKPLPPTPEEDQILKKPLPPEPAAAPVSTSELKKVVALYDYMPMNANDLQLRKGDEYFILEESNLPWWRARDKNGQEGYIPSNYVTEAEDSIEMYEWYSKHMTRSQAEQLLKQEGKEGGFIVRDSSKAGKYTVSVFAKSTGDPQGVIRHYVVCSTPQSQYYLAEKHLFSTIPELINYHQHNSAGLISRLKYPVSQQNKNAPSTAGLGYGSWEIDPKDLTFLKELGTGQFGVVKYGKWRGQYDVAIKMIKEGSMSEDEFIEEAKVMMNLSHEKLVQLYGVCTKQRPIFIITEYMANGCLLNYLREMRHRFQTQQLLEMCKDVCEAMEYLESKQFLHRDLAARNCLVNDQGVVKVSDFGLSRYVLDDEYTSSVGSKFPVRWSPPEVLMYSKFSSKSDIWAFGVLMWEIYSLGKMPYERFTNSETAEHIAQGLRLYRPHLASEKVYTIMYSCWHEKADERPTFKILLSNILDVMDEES
FLT3, sequence (P36888 27-993): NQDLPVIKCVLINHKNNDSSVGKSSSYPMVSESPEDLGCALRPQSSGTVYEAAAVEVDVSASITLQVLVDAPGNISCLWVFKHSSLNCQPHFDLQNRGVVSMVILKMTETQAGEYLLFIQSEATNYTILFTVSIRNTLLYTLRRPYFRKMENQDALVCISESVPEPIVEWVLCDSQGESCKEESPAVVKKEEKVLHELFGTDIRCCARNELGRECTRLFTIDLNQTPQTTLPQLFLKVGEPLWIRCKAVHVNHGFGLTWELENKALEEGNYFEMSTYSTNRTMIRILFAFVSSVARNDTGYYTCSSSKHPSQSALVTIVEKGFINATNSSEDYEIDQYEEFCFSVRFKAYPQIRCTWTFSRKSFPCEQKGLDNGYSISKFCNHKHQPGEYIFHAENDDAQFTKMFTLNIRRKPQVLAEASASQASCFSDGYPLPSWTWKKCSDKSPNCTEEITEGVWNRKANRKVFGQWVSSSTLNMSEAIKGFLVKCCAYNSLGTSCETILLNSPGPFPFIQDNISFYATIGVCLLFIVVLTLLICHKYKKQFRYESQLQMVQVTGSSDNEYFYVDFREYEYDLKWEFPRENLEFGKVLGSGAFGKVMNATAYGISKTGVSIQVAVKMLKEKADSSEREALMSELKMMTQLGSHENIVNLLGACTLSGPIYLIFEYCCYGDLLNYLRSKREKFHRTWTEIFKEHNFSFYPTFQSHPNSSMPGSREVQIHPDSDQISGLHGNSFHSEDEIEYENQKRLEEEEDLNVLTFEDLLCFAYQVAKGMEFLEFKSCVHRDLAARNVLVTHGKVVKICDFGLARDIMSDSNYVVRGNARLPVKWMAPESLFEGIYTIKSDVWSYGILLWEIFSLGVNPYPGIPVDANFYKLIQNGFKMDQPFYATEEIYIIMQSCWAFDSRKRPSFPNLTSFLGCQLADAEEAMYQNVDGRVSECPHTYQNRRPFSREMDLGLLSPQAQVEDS
VEGFR2, sequence (P35968 20-1356): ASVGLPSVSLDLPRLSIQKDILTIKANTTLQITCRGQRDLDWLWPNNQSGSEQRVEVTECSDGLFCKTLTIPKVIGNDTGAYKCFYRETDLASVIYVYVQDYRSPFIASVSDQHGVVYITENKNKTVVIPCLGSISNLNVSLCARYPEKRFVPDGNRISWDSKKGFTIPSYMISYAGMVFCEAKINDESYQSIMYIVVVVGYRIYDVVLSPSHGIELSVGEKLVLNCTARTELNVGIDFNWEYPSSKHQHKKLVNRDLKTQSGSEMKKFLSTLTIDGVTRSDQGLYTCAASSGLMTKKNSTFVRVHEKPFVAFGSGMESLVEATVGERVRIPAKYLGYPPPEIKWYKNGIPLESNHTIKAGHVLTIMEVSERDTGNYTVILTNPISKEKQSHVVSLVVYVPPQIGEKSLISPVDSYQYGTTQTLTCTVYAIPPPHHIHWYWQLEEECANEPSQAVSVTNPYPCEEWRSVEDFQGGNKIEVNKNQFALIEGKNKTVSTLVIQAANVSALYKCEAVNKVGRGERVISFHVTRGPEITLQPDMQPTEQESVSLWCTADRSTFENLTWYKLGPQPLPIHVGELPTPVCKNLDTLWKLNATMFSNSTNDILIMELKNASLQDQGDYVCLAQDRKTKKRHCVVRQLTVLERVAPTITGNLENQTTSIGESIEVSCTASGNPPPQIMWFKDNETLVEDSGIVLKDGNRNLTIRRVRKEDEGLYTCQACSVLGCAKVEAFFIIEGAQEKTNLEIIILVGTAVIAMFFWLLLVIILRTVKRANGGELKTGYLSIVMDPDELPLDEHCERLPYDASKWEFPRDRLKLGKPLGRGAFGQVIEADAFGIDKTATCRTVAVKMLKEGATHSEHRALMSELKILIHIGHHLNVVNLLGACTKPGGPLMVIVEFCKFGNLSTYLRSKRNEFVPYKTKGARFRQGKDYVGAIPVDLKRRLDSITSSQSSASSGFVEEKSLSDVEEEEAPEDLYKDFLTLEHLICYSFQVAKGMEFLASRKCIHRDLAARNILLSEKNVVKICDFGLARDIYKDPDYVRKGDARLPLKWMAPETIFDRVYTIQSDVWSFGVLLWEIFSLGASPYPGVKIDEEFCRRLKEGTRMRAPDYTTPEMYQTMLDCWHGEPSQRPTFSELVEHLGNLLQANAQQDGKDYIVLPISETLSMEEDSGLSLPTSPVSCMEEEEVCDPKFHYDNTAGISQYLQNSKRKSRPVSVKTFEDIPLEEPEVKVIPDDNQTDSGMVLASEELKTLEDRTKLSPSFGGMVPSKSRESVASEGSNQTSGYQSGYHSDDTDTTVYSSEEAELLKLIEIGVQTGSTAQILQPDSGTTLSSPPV
c-KIT, sequence (P10721 26-976): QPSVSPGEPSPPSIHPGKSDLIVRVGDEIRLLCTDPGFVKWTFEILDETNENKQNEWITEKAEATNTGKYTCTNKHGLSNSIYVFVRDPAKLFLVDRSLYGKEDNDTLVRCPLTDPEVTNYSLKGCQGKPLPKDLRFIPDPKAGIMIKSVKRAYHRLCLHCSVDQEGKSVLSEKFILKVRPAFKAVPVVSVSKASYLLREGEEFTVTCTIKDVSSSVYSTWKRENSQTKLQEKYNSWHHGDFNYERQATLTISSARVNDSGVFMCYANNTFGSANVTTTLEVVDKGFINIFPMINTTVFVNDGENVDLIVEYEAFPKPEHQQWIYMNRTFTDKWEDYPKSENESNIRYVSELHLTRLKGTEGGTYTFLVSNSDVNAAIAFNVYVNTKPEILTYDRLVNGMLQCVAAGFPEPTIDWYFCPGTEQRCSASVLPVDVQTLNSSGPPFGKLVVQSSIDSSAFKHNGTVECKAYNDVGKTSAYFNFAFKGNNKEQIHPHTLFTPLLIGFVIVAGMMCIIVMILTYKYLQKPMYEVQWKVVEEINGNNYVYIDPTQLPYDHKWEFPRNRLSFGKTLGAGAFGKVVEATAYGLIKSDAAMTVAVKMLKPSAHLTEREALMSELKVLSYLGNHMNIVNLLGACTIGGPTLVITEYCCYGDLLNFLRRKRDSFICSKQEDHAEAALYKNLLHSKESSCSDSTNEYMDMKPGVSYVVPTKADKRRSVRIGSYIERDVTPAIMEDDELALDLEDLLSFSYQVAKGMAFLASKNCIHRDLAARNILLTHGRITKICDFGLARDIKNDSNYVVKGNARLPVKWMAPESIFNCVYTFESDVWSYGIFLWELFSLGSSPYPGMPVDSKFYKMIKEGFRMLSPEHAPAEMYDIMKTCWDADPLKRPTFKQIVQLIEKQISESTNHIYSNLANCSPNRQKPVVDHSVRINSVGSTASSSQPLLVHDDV
PDGFRα, sequence (P16234 24-1089): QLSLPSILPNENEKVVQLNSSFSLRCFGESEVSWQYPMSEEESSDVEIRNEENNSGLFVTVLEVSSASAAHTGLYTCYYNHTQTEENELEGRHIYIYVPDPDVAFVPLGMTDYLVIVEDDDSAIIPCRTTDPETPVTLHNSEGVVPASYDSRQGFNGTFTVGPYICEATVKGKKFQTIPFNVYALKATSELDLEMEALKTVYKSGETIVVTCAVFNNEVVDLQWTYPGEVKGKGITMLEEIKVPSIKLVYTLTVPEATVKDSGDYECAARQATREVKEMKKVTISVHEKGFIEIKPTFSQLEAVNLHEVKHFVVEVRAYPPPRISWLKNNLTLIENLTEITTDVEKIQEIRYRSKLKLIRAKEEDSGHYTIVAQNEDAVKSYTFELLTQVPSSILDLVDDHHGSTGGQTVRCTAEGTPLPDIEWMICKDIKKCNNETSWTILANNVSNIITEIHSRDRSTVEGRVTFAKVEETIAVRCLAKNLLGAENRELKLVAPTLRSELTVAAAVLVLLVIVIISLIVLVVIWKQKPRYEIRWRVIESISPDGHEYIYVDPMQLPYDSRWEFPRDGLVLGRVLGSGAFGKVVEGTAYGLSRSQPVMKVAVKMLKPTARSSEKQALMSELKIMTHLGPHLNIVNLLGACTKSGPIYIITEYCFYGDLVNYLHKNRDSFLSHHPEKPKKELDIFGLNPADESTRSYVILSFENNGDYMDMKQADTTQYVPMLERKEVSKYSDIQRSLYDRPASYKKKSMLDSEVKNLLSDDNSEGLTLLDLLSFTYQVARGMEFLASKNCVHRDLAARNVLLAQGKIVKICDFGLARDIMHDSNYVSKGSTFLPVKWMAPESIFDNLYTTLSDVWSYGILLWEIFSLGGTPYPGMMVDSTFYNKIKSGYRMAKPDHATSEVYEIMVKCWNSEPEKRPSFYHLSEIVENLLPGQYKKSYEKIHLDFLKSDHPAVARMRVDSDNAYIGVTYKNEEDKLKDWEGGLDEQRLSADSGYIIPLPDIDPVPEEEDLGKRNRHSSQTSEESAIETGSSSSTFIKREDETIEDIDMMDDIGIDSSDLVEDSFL

Structure (SMILES) | The kinase activity inhibitory rate (%) by the tested compounds at 10 μM c-KIT (c-KIT) [%] | IC50 (VEGFR2; ATP 90 μM (Km)) [µM] | The kinase activity inhibitory rate (%) by the tested compounds at 10 μM BTK (BTK) [%] | The kinase activity inhibitory rate (%) by the tested compounds at 10 μM c-SRC (c-SRC) [%] | The kinase activity inhibitory rate (%) by the tested compounds at 10 μM ALK (ALK) [%] | IC50 ([1]; 72 hours) [µM] | IC50 ([2]; 72 hours) [µM] | IC50 ([3]; 72 hours) [µM] | IC50 ([4]; 72 hours) [µM] | IC50 ([5]; 72 hours) [µM] | IC50 ([6]; 72 hours) [µM] | IC50 [7, 16] [µM] | IC50 ([8]; 72 hours) [µM] | IC50 [9] [µM] | IC50 ([10]; 72 hours) [µM] | IC50 ([11]; 72 hours) [µM] | IC50 [12] [µM] | IC50 [13] [µM] | IC50 [14] [µM] | IC50 [15] [µM] | further results
CC(C)n1c(Nc2ccc(F)c(Cl)c2)nc2cnc(Nc3ccc(C(=O)NN4CCN(C)CC4)cc3F)nc21 [Compound 8-5, 3-fluoro-4-(9-isopropyl-8-(3-chloro-4-fluorophenylamino)-9H-purin-2-ylamino)-N-(4-methylpiperazin-1-yl)benzamide] | – | – | – | – | – | – | – | – | – | – | – | – | – | – | – | – | – | – | – | – | inhibition at 10 µM (c-KIT; read-out: The kinase activity inhibitory rate (%) by the tested compounds at 10 μM c-KIT): 54%; IC50 (VEGFR2): > 1 µM; inhibition at 10 µM (BTK; read-out: The kinase activity inhibitory rate (%) by the tested compounds at 10 μM BTK): 78%; inhibition at 10 µM (c-SRC; read-out: The kinase activity inhibitory rate (%) by the tested compounds at 10 μM c-SRC): 32%; inhibition at 10 µM (ALK; read-out: The kinase activity inhibitory rate (%) by the tested compounds at 10 μM ALK): 54%; inhibition at 10 µM (PDGFRα; read-out: The kinase activity inhibitory rate (%) by the tested compounds at 10 μM PDGFRα): 19%; inhibition at 10 µM (FLT3; read-out: The kinase activity inhibitory rate (%) by the tested compounds at 10 μM FLT3): 35%; inhibition at 10 µM (MET; read-out: The kinase activity inhibitory rate (%) by the tested compounds at 10 μM MET): 64%; IC50 ([1]; Homo sapiens, HCT-116, 72 hours): 7.81 µM; IC50 ([2]; Homo sapiens, A-431, 72 hours): 9.29 µM; IC50 ([3]; Homo sapiens, A-375, 72 hours): > 1 µM; IC50 ([4]; Homo sapiens, K562, 72 hours): 3.73 µM; IC50 ([5]; Homo sapiens, MDA-MB-468, 72 hours): 6.13 µM; IC50 ([6]; Homo sapiens, SW480, 72 hours): > 10 µM; IC50 ([7]; Homo sapiens, HepG2, 72 hours): > 10 µM; IC50 ([8]; Homo sapiens, SW-620, 72 hours): 5.57 µM; IC50 ([9]; Homo sapiens): > 1 µM; IC50 ([10]; Homo sapiens, BT-474, 72 hours): 1.86 µM; IC50 ([11]; Homo sapiens, MV4-11, 72 hours): 1.77 µM
CC(C)n1c(Nc2ccc(OCc3cccc(F)c3)c(Cl)c2)nc2cnc(Nc3ccc(N4CCN(C)CC4)cc3)nc21 [Compounds 8-19] | 12 | > 1 | 71 | 97 | 90 | > 1 | 9.32 | 1.66 | 2.79 | 9.98 | > 10 | 5.42 | 1.99 | 1.01 | 4.99 | 4.78 | 0.459 | 7.32 | 0.912 | 0.316 | The kinase activity inhibitory rate (%) by the tested compounds at 10 μM PDGFRα (PDGFRα): 34%; The kinase activity inhibitory rate (%) by the tested compounds at 10 μM FLT3 (FLT3): 43%; The kinase activity inhibitory rate (%) by the tested compounds at 10 μM MET (MET): 97%
CN1CCN(c2ccc(Nc3ncc4nc(Nc5ccccc5)n(C5CCCC5)c4n3)cc2)CC1 [Compounds 8-26] | 94 | 0.007 | 99 | 99 | 71 | 0.239 | 1.05 | 0.378 | 0.12 | 0.299 | 3.44 | 6.25 | 0.282 | > 1 | 0.107 | 0.093 | 0.0002 | 0.369 | 0.0011 | 0.0107 | The kinase activity inhibitory rate (%) by the tested compounds at 10 μM PDGFRα (PDGFRα): 95%; The kinase activity inhibitory rate (%) by the tested compounds at 10 μM FLT3 (FLT3): 86%; The kinase activity inhibitory rate (%) by the tested compounds at 10 μM MET (MET): 86%
CCN1CCN(Cc2ccc(Nc3ncc4nc(Nc5ccccc5)n(C5CCCC5)c4n3)cc2)CC1 [Compounds 8-59] | – | – | – | – | – | 5.72 | 0.497 | 1.2 | 0.111 | 6.84 | 4.75 | > 10 | 1.33 | 0.808 | 1.1 | 0.0998 | 0.0021 | 0.248 | 0.0002 | 0.0033 | –
